Source: article PMC11864979, “First-in-class ultralong-target-residence-time p38α inhibitors as a mitosis-targeted therapy for colorectal cancer” (Nature Cancer, 2025)
Like-named read-outs stand apart in the source and are kept apart here.

Legend:
Assay in all cases: selectivity profiling in a panel of 340 wild-type kinases (Reaction Biology Europe)
Type in all cases: binding
[1] = target: T1, 340 wild-type kinases (Homo sapiens, UniProt P53671)
T1 construct: purchased Reaction Biology Europe

[2] = target: T2, 340 wild-type kinases (Homo sapiens, UniProt P80192)
T2 construct: purchased Reaction Biology Europe

[3] = target: T3, 340 wild-type kinases (Homo sapiens, UniProt Q00535)
T3 construct: purchased Reaction Biology Europe

[4] = target: T4, 340 wild-type kinases (Homo sapiens, UniProt Q02763)
T4 construct: purchased Reaction Biology Europe

[5] = target: T5, 340 wild-type kinases (Homo sapiens, UniProt Q12851)
T5 construct: purchased Reaction Biology Europe
T5 sequence (Q12851 1-820): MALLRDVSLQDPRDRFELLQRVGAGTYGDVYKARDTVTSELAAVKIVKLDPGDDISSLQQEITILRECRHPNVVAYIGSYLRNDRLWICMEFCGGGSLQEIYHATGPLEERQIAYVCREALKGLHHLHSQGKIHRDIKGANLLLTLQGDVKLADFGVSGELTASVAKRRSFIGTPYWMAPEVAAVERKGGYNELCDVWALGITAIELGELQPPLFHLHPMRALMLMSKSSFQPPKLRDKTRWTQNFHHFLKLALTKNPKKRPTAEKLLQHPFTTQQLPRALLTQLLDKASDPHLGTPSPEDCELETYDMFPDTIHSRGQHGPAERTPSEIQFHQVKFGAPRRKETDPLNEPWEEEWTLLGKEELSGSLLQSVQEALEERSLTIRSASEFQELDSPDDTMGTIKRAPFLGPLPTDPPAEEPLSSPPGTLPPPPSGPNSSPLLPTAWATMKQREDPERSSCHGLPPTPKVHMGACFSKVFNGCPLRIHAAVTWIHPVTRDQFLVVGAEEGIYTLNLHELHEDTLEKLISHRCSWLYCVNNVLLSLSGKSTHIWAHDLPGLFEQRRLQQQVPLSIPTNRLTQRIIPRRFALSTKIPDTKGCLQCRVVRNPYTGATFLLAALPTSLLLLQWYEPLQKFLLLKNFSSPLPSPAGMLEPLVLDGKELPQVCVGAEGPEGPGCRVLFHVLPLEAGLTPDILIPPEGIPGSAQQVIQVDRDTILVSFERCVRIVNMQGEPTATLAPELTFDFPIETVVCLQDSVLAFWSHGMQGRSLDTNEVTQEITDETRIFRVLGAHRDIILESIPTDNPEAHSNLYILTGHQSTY

[6] = target: T6, 340 wild-type kinases (Homo sapiens, UniProt Q13188)
T6 construct: purchased Reaction Biology Europe
T6 sequence (Q13188 1-491): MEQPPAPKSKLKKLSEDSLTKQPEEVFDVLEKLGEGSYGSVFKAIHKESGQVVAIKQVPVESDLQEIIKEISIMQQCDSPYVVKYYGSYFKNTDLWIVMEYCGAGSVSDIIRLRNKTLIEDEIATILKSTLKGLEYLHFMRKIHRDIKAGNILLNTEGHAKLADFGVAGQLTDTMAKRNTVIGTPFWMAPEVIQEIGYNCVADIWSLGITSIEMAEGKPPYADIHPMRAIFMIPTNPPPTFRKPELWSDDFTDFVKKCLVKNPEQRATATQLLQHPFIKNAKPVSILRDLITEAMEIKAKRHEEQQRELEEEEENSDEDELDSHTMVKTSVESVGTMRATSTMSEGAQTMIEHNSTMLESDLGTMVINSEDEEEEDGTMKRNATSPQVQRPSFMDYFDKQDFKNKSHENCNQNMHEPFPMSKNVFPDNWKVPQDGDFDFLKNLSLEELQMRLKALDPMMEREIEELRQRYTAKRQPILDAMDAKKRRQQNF

[7] = target: T7, 340 wild-type kinases (Homo sapiens, UniProt Q5S007)
T7 construct: purchased Reaction Biology Europe

[8] = target: T8, 340 wild-type kinases (Homo sapiens, UniProt Q99558)
T8 construct: purchased Reaction Biology Europe

[9] = target: T9, 340 wild-type kinases (Homo sapiens, UniProt Q9HAZ1)
T9 construct: purchased Reaction Biology Europe
T9 sequence (Q9HAZ1 whole entry): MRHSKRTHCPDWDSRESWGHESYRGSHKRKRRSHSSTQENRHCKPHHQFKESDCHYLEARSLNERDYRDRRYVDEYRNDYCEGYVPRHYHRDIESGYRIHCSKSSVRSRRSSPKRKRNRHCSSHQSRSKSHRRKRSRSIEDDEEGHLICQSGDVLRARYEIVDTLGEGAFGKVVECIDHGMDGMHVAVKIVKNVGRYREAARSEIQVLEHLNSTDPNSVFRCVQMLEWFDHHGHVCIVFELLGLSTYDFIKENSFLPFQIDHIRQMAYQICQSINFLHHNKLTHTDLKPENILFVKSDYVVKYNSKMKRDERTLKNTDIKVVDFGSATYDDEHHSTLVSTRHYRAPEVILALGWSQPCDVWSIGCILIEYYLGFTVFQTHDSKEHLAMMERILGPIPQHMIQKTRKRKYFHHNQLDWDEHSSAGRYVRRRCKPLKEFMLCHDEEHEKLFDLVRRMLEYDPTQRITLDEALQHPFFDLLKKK

T4 sequence (Q02763 23-1124): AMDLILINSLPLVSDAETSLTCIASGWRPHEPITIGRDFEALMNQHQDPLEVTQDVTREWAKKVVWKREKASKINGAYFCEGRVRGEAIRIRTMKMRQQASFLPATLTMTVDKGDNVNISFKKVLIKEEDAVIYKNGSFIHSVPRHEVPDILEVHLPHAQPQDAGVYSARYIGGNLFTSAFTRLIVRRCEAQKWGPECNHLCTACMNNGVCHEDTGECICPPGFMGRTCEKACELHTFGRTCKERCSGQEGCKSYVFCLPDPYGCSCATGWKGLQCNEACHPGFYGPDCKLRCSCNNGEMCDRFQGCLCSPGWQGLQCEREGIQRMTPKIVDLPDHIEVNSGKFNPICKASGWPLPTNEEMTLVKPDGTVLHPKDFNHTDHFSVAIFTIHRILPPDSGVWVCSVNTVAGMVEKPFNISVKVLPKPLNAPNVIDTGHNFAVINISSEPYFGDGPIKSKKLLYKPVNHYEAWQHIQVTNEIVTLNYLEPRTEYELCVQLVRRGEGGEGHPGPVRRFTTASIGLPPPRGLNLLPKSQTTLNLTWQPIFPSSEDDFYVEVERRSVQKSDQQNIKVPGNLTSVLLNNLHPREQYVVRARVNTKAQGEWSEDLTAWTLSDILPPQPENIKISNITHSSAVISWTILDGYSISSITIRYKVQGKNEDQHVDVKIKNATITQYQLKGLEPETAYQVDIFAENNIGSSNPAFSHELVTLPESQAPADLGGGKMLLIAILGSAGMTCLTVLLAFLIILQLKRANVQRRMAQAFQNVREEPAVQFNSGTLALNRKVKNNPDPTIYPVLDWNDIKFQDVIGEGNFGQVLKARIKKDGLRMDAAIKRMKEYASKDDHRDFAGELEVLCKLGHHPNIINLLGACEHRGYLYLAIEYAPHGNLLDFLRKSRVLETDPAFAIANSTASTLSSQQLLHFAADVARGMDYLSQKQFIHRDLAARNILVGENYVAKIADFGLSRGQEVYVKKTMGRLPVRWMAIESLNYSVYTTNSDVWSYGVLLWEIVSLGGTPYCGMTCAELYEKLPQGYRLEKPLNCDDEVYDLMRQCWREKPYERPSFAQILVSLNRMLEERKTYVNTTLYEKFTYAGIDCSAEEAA
T8 sequence (Q99558 whole entry): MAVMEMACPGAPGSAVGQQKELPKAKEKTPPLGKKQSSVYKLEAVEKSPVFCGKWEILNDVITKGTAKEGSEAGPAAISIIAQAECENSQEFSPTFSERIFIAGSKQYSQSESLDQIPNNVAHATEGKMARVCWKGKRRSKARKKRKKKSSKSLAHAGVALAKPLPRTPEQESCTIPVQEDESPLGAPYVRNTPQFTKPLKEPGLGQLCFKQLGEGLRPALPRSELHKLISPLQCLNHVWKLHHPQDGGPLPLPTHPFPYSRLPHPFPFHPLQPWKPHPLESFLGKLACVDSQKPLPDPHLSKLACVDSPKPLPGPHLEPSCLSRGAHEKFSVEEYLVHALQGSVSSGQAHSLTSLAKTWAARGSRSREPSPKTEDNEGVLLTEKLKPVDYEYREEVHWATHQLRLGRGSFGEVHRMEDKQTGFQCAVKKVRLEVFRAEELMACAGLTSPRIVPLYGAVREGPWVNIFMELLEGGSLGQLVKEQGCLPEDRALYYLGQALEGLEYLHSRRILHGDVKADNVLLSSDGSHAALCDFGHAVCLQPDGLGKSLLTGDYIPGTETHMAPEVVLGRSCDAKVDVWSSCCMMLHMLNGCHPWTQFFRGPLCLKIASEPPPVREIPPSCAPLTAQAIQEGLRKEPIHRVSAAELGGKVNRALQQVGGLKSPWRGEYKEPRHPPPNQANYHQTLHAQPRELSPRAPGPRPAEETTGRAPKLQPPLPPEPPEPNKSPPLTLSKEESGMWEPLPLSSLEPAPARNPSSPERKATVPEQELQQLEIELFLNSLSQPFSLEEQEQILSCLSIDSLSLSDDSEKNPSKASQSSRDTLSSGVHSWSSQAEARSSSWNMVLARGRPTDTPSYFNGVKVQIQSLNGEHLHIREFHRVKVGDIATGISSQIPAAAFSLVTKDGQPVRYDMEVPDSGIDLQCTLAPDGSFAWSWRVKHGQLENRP
T1 sequence (P53671 whole entry): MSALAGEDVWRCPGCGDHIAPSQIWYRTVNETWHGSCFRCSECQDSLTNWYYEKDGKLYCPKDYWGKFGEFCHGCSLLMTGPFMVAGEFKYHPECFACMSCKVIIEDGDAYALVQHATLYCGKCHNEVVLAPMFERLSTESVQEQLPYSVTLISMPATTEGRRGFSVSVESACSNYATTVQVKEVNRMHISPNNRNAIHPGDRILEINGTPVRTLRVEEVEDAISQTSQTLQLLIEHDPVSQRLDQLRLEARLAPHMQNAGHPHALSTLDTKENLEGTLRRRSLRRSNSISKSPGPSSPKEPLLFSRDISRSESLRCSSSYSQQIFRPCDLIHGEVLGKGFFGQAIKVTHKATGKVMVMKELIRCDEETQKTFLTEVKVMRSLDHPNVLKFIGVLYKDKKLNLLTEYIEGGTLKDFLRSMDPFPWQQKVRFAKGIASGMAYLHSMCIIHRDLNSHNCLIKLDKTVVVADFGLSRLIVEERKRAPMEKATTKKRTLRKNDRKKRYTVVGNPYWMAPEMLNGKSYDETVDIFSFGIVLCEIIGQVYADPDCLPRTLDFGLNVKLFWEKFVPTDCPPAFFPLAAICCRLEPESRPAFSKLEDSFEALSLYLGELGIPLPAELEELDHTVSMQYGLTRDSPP
T2 sequence (P80192 whole entry): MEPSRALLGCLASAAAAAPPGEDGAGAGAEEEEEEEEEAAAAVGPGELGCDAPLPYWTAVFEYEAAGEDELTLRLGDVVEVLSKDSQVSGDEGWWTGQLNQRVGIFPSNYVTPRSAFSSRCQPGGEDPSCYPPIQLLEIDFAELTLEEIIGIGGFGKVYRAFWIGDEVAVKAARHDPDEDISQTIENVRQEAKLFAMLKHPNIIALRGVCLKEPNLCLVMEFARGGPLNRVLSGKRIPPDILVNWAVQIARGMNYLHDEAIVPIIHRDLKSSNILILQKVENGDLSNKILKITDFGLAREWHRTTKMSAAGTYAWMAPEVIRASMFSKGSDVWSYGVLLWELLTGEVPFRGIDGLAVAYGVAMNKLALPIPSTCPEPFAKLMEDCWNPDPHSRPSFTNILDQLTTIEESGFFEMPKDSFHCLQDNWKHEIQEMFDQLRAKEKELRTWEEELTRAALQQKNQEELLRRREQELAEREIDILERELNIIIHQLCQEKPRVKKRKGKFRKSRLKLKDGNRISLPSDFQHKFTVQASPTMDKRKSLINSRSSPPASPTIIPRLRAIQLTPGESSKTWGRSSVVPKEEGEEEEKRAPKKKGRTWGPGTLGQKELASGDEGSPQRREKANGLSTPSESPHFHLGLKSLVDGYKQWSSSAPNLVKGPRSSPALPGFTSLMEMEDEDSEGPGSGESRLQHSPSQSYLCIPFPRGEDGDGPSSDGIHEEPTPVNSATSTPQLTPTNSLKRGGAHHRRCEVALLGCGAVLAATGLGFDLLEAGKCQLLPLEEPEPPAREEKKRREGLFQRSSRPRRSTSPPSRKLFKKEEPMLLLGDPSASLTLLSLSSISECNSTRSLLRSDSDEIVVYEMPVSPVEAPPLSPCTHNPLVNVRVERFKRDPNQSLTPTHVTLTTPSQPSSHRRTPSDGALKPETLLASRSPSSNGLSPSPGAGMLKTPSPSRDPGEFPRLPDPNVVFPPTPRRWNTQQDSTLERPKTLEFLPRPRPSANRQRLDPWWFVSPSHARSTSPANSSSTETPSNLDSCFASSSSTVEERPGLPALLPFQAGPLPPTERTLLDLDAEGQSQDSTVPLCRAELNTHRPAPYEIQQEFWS
T3 sequence (Q00535 whole entry): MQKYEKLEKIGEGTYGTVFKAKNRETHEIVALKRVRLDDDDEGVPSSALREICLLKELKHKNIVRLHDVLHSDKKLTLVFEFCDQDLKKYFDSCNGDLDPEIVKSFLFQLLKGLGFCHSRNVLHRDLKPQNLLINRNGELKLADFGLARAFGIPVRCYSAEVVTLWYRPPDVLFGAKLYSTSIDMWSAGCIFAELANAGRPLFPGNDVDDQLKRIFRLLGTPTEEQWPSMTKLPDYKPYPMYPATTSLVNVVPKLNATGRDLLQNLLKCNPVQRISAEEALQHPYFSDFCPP

Structure (SMILES): CNC(=O)c1ccc2c(c1)C(=O)c1ccc(Nc3ccc(F)c(NC(=O)C4CC4)c3)cc1CC2 [Compound 2015]
- remaining activity at 0.2 µM ([1]; 0.2 µM 2015, read-out: LIMK2 residual activity): 114%
- remaining activity at 1 µM ([1]; 1 µM 2015, read-out: LIMK2 residual activity): 103%
- remaining activity at 0.2 µM ([1]; LIMK2, 0.2 µM, read-out: residual activity): 114%
- remaining activity at 1 µM ([1]; LIMK2, 1 µM, read-out: residual activity): 103%
- remaining activity at 0.2 µM ([2]; 0.2 µM 2015, read-out: MAP3K9 residual activity): 114%
- remaining activity at 1 µM ([2]; 1 µM 2015, read-out: MAP3K9 residual activity): 96.4%
- remaining activity at 0.2 µM ([2]; MAP3K9, 0.2 µM, read-out: residual activity): 114%
- remaining activity at 1 µM ([2]; MAP3K9, 1 µM, read-out: residual activity): 96.4%
- remaining activity at 0.2 µM ([3]; 0.2 µM 2015, read-out: CDK5/p25NCK residual activity): 110%
- remaining activity at 0.2 µM ([3]; 0.2 µM 2015, read-out: CDK5/p35NCK residual activity): 114%
- remaining activity at 1 µM ([3]; 1 µM 2015, read-out: CDK5/p25NCK residual activity): 100%
- remaining activity at 1 µM ([3]; 1 µM 2015, read-out: CDK5/p35NCK residual activity): 103%
- remaining activity at 0.2 µM ([3]; CDK5/p25NCK, 0.2 µM, read-out: residual activity): 110%
- remaining activity at 1 µM ([3]; CDK5/p25NCK, 1 µM, read-out: residual activity): 100%
- remaining activity at 0.2 µM ([3]; CDK5/p35NCK, 0.2 µM, read-out: residual activity): 114%
- remaining activity at 1 µM ([3]; CDK5/p35NCK, 1 µM, read-out: residual activity): 103%
- remaining activity at 0.2 µM ([4]; 0.2 µM 2015, read-out: TIE2 residual activity): 120%
- remaining activity at 1 µM ([4]; 1 µM 2015, read-out: TIE2 residual activity): 90.4%
- remaining activity at 0.2 µM ([4]; TIE2, 0.2 µM, read-out: residual activity): 120%
- remaining activity at 1 µM ([4]; TIE2, 1 µM, read-out: residual activity): 90.5%
- remaining activity at 0.2 µM ([5]; 0.2 µM 2015, read-out: MAP4K2 residual activity): 109%
- remaining activity at 1 µM ([5]; 1 µM 2015, read-out: MAP4K2 residual activity): 104%
- remaining activity at 0.2 µM ([5]; MAP4K2, 0.2 µM, read-out: residual activity): 109%
- remaining activity at 1 µM ([5]; MAP4K2, 1 µM, read-out: residual activity): 104%
- remaining activity at 0.2 µM ([6]; 0.2 µM 2015, read-out: MST2 residual activity): 115%
- remaining activity at 1 µM ([6]; 1 µM 2015, read-out: MST2 residual activity): 106%
- remaining activity at 0.2 µM ([6]; MST2, 0.2 µM, read-out: residual activity): 115%
- remaining activity at 1 µM ([6]; MST2, 1 µM, read-out: residual activity): 106%
- remaining activity at 0.2 µM ([7]; 0.2 µM 2015, read-out: LRRK2 residual activity): 98.2%
- remaining activity at 1 µM ([7]; 1 µM 2015, read-out: LRRK2 residual activity): 93.8%
- remaining activity at 0.2 µM ([7]; LRRK2, 0.2 µM, read-out: residual activity): 98.2%
- remaining activity at 1 µM ([7]; LRRK2, 1 µM, read-out: residual activity): 93.8%
- remaining activity at 0.2 µM ([8]; 0.2 µM 2015, read-out: NIK residual activity): 113%
- remaining activity at 1 µM ([8]; 1 µM 2015, read-out: NIK residual activity): 90.5%
- remaining activity at 0.2 µM ([8]; NIK, 0.2 µM, read-out: residual activity): 113%
- remaining activity at 1 µM ([8]; NIK, 1 µM, read-out: residual activity): 90.5%
- remaining activity at 0.2 µM ([9]; 0.2 µM 2015, read-out: CLK4 residual activity): 120%
- remaining activity at 0.2 µM ([9]; CLK4, 0.2 µM, read-out: residual activity): 120%
- remaining activity at 1 µM ([9]; CLK4, 1 µM, read-out: residual activity): 118%
